US20240368096A1 (Enanta Pharmaceuticals, Inc., priority 2022, published 2024)
Like-named read-outs stand apart in the source and are kept apart here.

Tests used:
NTCP = molecular target: T1, NTCP (Homo sapiens, UniProt Q14973); experiment: HepG2-NTCP preS1 binding competition assay (FITC-labeled myristoylated preS1 peptide); conditions: HepG2-NTCP cells; competition with FITC-labeled preS1 peptide
T1 construct: expressed in transfected cells; host or cells: HepG2-NTCP (clone A3, kept under puromycin)
T1 sequence (Q14973 1-349): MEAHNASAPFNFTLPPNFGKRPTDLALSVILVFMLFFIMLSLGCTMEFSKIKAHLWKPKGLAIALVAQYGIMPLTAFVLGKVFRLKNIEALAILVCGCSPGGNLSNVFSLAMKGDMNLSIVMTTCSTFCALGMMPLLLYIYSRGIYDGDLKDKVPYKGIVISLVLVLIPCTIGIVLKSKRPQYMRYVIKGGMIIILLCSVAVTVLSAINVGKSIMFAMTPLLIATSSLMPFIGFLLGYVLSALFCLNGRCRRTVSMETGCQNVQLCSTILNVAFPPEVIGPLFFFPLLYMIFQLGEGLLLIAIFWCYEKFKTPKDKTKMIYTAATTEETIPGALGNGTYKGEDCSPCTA
Description: HepG2-NTCP preS1 Binding Competition Assay
Myristoylated preS1 peptide (2-48 aa) conjugated to a C-terminal FITC tag was synthesized to evaluate preS1 binding to NTCP-expressing cells. HepG2-NTCP cells seeded in 384-wells were pre-treated with compounds for 2 hours prior to the addition of FITC-labeled preS1 peptide. After co-incubation for 30 minutes, unbound FITC-preS1 peptide was washed twice with PBS, and the fluorescence of preS1-FITC bound to cell surface was detected by Envision plate reader. EC50 ranges are as follows: A<0.1 μM; B 0.1-1 μM; C>1 μM.

HBV = HBV infection in HepG2-NTCP cells (HBeAg AlphaLISA in supernatants); assay type: cell-based; conditions: Hepatitis B virus, 192 h
Outline: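 HepG2-NTCP A3 cells were pre-incubated 2 h with 3-fold serially diluted compounds, then infected with HBV at 2000 GE/cell with 4% PEG (0.5% DMSO final). After washing on day 1, cells stayed in 2.5% DMSO medium; supernatant HBeAg measured by AlphaLISA on day 8, EC50 versus DMSO controls.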

[1] = HBV infection of HepG2-NTCP cells, HBeAg in supernatants at day 8 post infection, read-out: Cellular EC50

With `COc1ccccc1N1C[C@@H](C2CCCCC2)N(C)S(=O)(=O)c2cc(-c3ccc(F)c(C(=O)O)c3)c(Cl)cc21` [Example 304, (R)-5-(7-chloro-3-cyclohexyl-5-(2-methoxyphenyl)-2-methyl-1,1-dioxido-2,3,4,5-tetrahydrobenzo[f][1,2,5]thiadiazepin-8-yl)-2-fluorobenzoic acid] the EC50 (NTCP) was > 1000 nM and the EC50 (HBV; read-out: Cellular EC50 (μM)) was > 1 µM.
`CC(C)CN1C[C@@H](C2CCCCC2)N(C)S(=O)(=O)c2cc(-c3ccc(F)c(C(=O)O)c3)c(Cl)cc21` [Example 325] was tested, and the EC50 (NTCP) was < 100 nM and the EC50 (HBV; [1]) was < 0.1 µM.
In the case of `CN1[C@H](C2CCCCC2)CN(CC2COC2)c2cc(Cl)c(-c3ccc(F)c(C(=O)O)c3)cc2S1(=O)=O` [Example 320], the EC50 (NTCP) is reported as > 1000 nM and the EC50 (HBV; read-out: Cellular EC50 (μM)) is reported as > 1 µM.
With `CCCCOC(=O)Nc1cc(-c2cc3c(cc2Cl)N(c2ccccc2)C[C@@H](C2CCCCC2)N(C)S3(=O)=O)sc1C(=O)O` [Example 246] the EC50 (NTCP) was < 100 nM and the EC50 (HBV; [1]) was < 0.1 µM.
`COCCOc1cc2c(cc1-c1cc(F)c(C(=O)O)s1)S(=O)(=O)N(C)[C@H](C1CCCCC1)CN2c1ccccc1` [Example 486] was tested, and the EC50 (NTCP) was < 100 nM and the EC50 (HBV; [1]) was < 0.1 µM.
`CC(=O)NS(=O)(=O)c1ccc(-c2cc3c(cc2Cl)N(c2ccccc2)C[C@@H](C2CCCCC2)N(C)S3(=O)=O)s1` [Example 225] was tested, and the EC50 (NTCP) was 100 to 1000 nM and the EC50 (HBV; [1]) was 0.1 to 1 µM.
For `CCCCCCS(=O)(=O)Nc1ccc(-c2cc3c(cc2Cl)N(c2ccccc2)C[C@@H](C2CCCCC2)N(C)S3(=O)=O)cc1C(=O)O` [Example 273], the EC50 (NTCP) was < 100 nM and the EC50 (HBV; [1]) was < 0.1 µM.
With `Cc1cc(-c2cc3c(cc2OCC(F)(F)F)N(c2ccccc2)C[C@@H](C2CCCCC2)N(C)S3(=O)=O)sc1C(=O)O` [Example 512, (R)-5-(3-cyclohexyl-2-methyl-1,1-dioxido-5-phenyl-7-(2,2,2-trifluoroethoxy)-2,3,4,5-tetrahydrobenzo[f][1,2,5]thiadiazepin-8-yl)-3-methylthiophene-2-carboxylic acid] the EC50 (NTCP) was < 100 nM and the EC50 (HBV; [1]) was < 0.1 µM.
`CCOc1ccccc1N1C[C@@H](C2CCCCC2)N(C)S(=O)(=O)c2cc(-c3ccc(F)c(C(=O)O)c3)c(Cl)cc21` [Example 307] was tested, and the EC50 (NTCP) was > 1000 nM and the EC50 (HBV; read-out: Cellular EC50 (μM)) was > 1 µM.
`CN1[C@H](C2CCCCC2)CN(c2ccccc2)c2cc(Cl)c(N3C[C@@H](C(=O)O)[C@H](c4ccccc4)C3)cc2S1(=O)=O` [Example 613] was tested, and the EC50 (NTCP) was 100 to 1000 nM and the EC50 (HBV; [1]) was < 0.1 µM.
`CN1[C@H](C2CCCCC2)CN(c2csc(Cl)c2)c2cc(Cl)c(-c3ccc(F)c(C(=O)O)c3)cc2S1(=O)=O` [Example 316, (R)-5-(7-chloro-5-(5-chlorothiophen-3-yl)-3-cyclohexyl-2-methyl-1,1-dioxido-2,3,4,5-tetrahydrobenzo[f][1,2,5]thiadiazepin-8-yl)-2-fluorobenzoic acid] was tested, and the EC50 (NTCP) was < 100 nM and the EC50 (HBV; [1]) was < 0.1 µM.
With `CCCS(=O)(=O)Nc1cc(-c2cc3c(cc2Cl)N(c2ccccc2)C[C@@H](C2CCCCC2)N(C)S3(=O)=O)sc1C(=O)O` [Example 275, (R)-5-(7-chloro-3-cyclohexyl-2-methyl-1,1-dioxido-5-phenyl-2,3,4,5-tetrahydrobenzo[f][1,2,5]thiadiazepin-8-yl)-3-(propylsulfonamido)thiophene-2-carboxylic acid] the EC50 (NTCP) was < 100 nM and the EC50 (HBV; [1]) was < 0.1 µM.
`CN1[C@H](C2CCCCC2)CN(c2ccccc2)c2cc(Cl)c([C@H]3C[C@H](C(=O)O)C3)cc2S1(=O)=O` [Example 608, (1R,3r)-3-((R)-7-chloro-3-cyclohexyl-2-methyl-1,1-dioxido-5-phenyl-2,3,4,5-tetrahydrobenzo[f][1,2,5]thiadiazepin-8-yl)cyclobutane-1-carboxylic acid] showed an EC50 (NTCP) of 100 to 1000 nM and an EC50 (HBV; [1]) of 0.1 to 1 µM.
With `COCCOc1cc2c(cc1-c1ccc(F)c(C(=O)O)c1)S(=O)(=O)N(C)[C@H](C1CCCCC1)CN2c1ccccc1` [Example 388] the EC50 (NTCP) was < 100 nM and the EC50 (HBV; [1]) was < 0.1 µM.
For `CN1[C@H](C2CCCCC2)CN(c2ccccc2)c2cc(C34CC(C(F)(F)F)(C3)C4)c(-c3ccc(F)c(C(=O)O)c3)cc2S1(=O)=O` [Example 595], the EC50 (NTCP) was < 100 nM and the EC50 (HBV; [1]) was < 0.1 µM.
For `CN1[C@H](C2CCCCC2)CN(c2ccccc2)c2cc(F)c(-c3ccc(NC(=O)OCc4ccccc4)c(C(=O)O)c3)cc2S1(=O)=O` [Example 235, (R)-2-(((benzyloxy)carbonyl)amino)-5-(3-cyclohexyl-7-fluoro-2-methyl-1,1-dioxido-5-phenyl-2,3,4,5-tetrahydrobenzo[f][1,2,5]thiadiazepin-8-yl)benzoic acid], the EC50 (NTCP) was < 100 nM and the EC50 (HBV; [1]) was < 0.1 µM.
With `CN1[C@H](C2CCCCC2)CN(c2nccs2)c2cc(Cl)c(-c3ccc(F)c(C(=O)O)c3)cc2S1(=O)=O` [Example 317] the EC50 (NTCP) was 100 to 1000 nM and the EC50 (HBV; [1]) was 0.1 to 1 µM.
With `CCCS(=O)(=O)Nc1ccc(-c2cc3c(cc2Cl)N(c2ccccc2)C[C@@H](C2CCCCC2)N(C)S3(=O)=O)cc1C(=O)O` [Example 274] the EC50 (NTCP) was < 100 nM and the EC50 (HBV; [1]) was < 0.1 µM.
In the case of `CN1[C@H](C2CCCCC2)CN(c2ncco2)c2cc(Cl)c(-c3ccc(F)c(C(=O)O)c3)cc2S1(=O)=O` [Example 318], the EC50 (NTCP) is reported as > 1000 nM and the EC50 (HBV; read-out: Cellular EC50 (μM)) is reported as > 1 µM.
In the case of `CN1[C@H](C2CCCCC2)CN(c2ccccc2)c2cc(Cl)c(N3C[C@H](C(=O)O)[C@@H](C(F)(F)F)C3)cc2S1(=O)=O` [Example 614], the EC50 (NTCP) is reported as < 100 nM and the EC50 (HBV; [1]) is reported as < 0.1 µM.
`CCCCC1CN(c2ccccc2)c2cc(CN3CCCC3)c(-c3ccc(F)c(C(=O)O)c3)cc2S(=O)(=O)N1C` (centres unmarked) [Example 563, 5-(3-butyl-2-methyl-1,1-dioxido-5-phenyl-7-(pyrrolidin-1-ylmethyl)-2,3,4,5-tetrahydrobenzo[f][1,2,5]thiadiazepin-8-yl)-2-fluorobenzoic acid] was tested, and the EC50 (NTCP) was < 100 nM and the EC50 (HBV; [1]) was 0.1 to 1 µM.
With `CN1[C@H](C2CCCCC2)CN(c2ccccc2)c2cc(OCc3c[nH]cn3)c(-c3ccc(F)c(C(=O)O)c3)cc2S1(=O)=O` [Example 391] the EC50 (NTCP) was > 1000 nM and the EC50 (HBV; read-out: Cellular EC50 (μM)) was > 1 µM.
In the case of `CN1[C@H](C2CCCCC2)CN(c2ccccc2)c2cc(Cl)c(N3C[C@H]4C[C@@]4(C(=O)O)C3)cc2S1(=O)=O` [Example 615], the EC50 (NTCP) is reported as < 100 nM and the EC50 (HBV; [1]) is reported as 0.1 to 1 µM.
For `CC(C)COC(=O)Nc1cc(-c2cc3c(cc2Cl)N(c2ccccc2)C[C@@H](C2CCCCC2)N(C)S3(=O)=O)sc1C(=O)O` [Example 241], the EC50 (NTCP) was < 100 nM and the EC50 (HBV; [1]) was < 0.1 µM.
`CN1[C@H](C2CCCCC2)CN(c2ccccc2)c2cc(Cl)c(N3C[C@H](C(=O)O)[C@@H](c4ccccc4)C3)cc2S1(=O)=O` [Example 612] was tested, and the EC50 (NTCP) was 100 to 1000 nM and the EC50 (HBV; [1]) was < 0.1 µM.
For `COC(C)(C)COC(=O)Nc1cc(-c2cc3c(cc2Cl)N(c2ccccc2)C[C@@H](C2CCCCC2)N(C)S3(=O)=O)sc1C(=O)O` [Example 239, (R)-5-(7-chloro-3-cyclohexyl-2-methyl-1,1-dioxido-5-phenyl-2,3,4,5-tetrahydrobenzo[f][1,2,5]thiadiazepin-8-yl)-3-(((2-methoxy-2-methylpropoxy)carbonyl)amino)thiophene-2-carboxylic acid], the EC50 (NTCP) was < 100 nM and the EC50 (HBV; [1]) was < 0.1 µM.
For `CN1[C@H](C2CCCCC2)CN(c2ccccc2)c2cc(Cl)c(-c3ccc(N)c(C(=O)O)c3)cc2S1(=O)=O` [Example 157, (R)-2-amino-5-(7-chloro-3-cyclohexyl-2-methyl-1,1-dioxido-5-phenyl-2,3,4,5-tetrahydrobenzo[f][1,2,5]thiadiazepin-8-yl)benzoic acid], the EC50 (NTCP) was 100 to 1000 nM and the EC50 (HBV; [1]) was 0.1 to 1 µM.
Work on `CN1[C@H](C2CCCCC2)CN(C2CCOCC2)c2cc(Cl)c(-c3ccc(F)c(C(=O)O)c3)cc2S1(=O)=O` [Example 321] yielded an EC50 (NTCP) of 100 to 1000 nM and an EC50 (HBV; [1]) of 0.1 to 1 µM.
